Test results reported in patent publication US11319318B2, “Pyridinones and isoquinolinones as inhibitors of the bromodomain BRD9” (Boehringer Ingelheim International GmbH, priority 2015, dated 2022).

target: T1, bromodomain of BRD9 (GST-BRD9 aa 130-259) / H3 K9/14/18/23Ac(1-28) peptide (Homo sapiens, UniProt Q9H8M2); assay: BRD9-H3 tetra-acetylated Peptide Inhibition AlphaScreen; format: binding
T1 construct: The protein corresponding to amino acids 130-259 that contains the bromodomain of BRD9; made in house; host or cells: E. coli
T1 sequence (Q9H8M2 130-259): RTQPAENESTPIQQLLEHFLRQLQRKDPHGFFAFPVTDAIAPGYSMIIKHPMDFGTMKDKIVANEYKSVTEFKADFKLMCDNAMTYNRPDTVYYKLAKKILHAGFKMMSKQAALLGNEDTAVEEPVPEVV

Row | IC50 [nM] | SMILES
1 | 268 | COc1cc(-c2cc(C)c(=O)n(C)c2)cc(C)c1CN [Compound I-202, 5-(4-Aminomethyl-3-methoxy-5-methyl-phenyl)-1,3-dimethyl-1H-pyridin-2-one]
2 | 231 | Cc1cc(-c2ccc(CN3CCN(C)CC3)c(N(C)C)c2)cn(C)c1=O [Compound I-204, 5-[3-Dimethylamino-4-(4-methyl-piperazin-1-ylmethyl)-phenyl]-1,3-dimethyl-1H-pyridin-2-one]
3 | 69 | COc1cc(-c2cc(C)c(=O)n(C)c2)cc(OC)c1CNC1CN(C)C1 [Compound I-205, 5-{3,5-Dimethoxy-4-[(1-methyl-azetidin-3-ylamino)-methyl]-phenyl}-1,3-dimethyl-1H-pyridin-2-one]
4 | 479 | COc1cc(-c2cc(C)c(=O)n(C)c2)ccc1CN1CC(N(C)C)C1 [Compound I-206, 5-[4-(3-Dimethylamino-azetidin-1-ylmethyl)-3-methoxy-phenyl]-1,3-dimethyl-1H-pyridin-2-one]
5 | 93 | COc1cc(-c2cc(C)c(=O)n(C)c2)cc(OC)c1CN(C)C1CNC1 [Compound I-207, 5-{4-[(Azetidin-3-yl-methyl-amino)-methyl]-3,5-dimethoxy-phenyl}-1,3-dimethyl-1H-pyridin-2-one]
6 | 114 | COc1cc(-c2cc(C)c(=O)n(C)c2)cc(OC)c1CN(C)C1CN(C)C1 [Compound I-208, 5-(3,5-Dimethoxy-4-{[methyl-(1-methyl-azetidin-3-yl)-amino]-methyl}-phenyl)-1,3-dimethyl-1H-pyridin-2-one]
7 | 218 | Cc1cc(-c2ccc3c(c2)CN(C)C3)cn(C)c1=O [Compound I-209, 1,3-Dimethyl-5-(2-methyl-2,3-dihydro-1H-isoindol-5-yl)-1H-pyridin-2-one]
8 | 302 | Cc1cc(-c2ccc3c(c2)CCN(C)C3)cn(C)c1=O [Compound I-210]
9 | 468 | Cc1cc(-c2ccc3c(c2)CCN(C)C3)c(C)n(C)c1=O [Compound I-211]
10 | 750 | Cc1cc(-c2ccc3c(c2)CN(C)C3)c(C)n(C)c1=O [Compound I-212]
11 | 5320 | Cc1c(-c2ccc(C(N)=O)cc2)cn(C)c(=O)c1C [Compound I-213]
12 | 3210 | Cc1cc(-c2ccc(C(=O)N3CCN(C)CC3)cc2)c(C)n(C)c1=O [Compound I-214]
13 | 9200 | Cc1cc(-c2ccc(N3CCOCC3)cc2)c(C)n(C)c1=O [Compound I-215]
14 | 8 | COc1cc(-c2cn(C)c(=O)c3ccccc23)cc(OC)c1CN1CC(O)C1 [II-1, 4-[4-(3-Hydroxy-azetidin-1-ylmethyl)-3,5-dimethoxy-phenyl]-2-methyl-2H-isoquinolin-1-one]
15 | 916 | CN(C)Cc1ccc(-c2cn(C)c(=O)c3ccccc23)cc1 [II-5]
16 | 953 | CN1CCN(C(=O)c2ccc(-c3cn(C)c(=O)c4cnccc34)cc2)CC1 [II-8]
17 | 1400 | Cn1cc(-c2ccc(C(N)=O)cc2)c2ccncc2c1=O [II-9]
18 | 42 | COc1cc(-c2cn(C)c(=O)c3cncnc23)cc(OC)c1CN1CC(O)C1 [II-11]
19 | 344 | COc1cc(-c2cn(C)c(=O)c3cncnc23)c(OC)cc1CN(C)C [II-12]
20 | 589 | Cn1cc(-c2ccc(C(=O)N3CCNCC3)cc2)c2ncncc2c1=O [II-13]
21 | 1380 | Cn1cc(-c2ccc(C(=O)N3CCNCC3)cc2)c2cccnc2c1=O [II-14]
22 | 16300 | CN1CCN(C(=O)c2ccc(-c3nn(C)c(=O)c4ccccc34)cc2)CC1 [II-17]
23 | 31 | COc1cc(-c2cn(C)c(=O)c3ccc(Cn4cccn4)cc23)cc(OC)c1CN(C)C [II-19]
24 | 178 | CN(C)Cc1ccc(-c2cn(C)c(=O)c3ccc(Cn4cccn4)cc23)cc1 [II-20]
25 | 2140 | COc1cc(-c2cn(C)c(=O)c3ncccc23)c(OC)cc1CN(C)C [II-22]
26 | 609 | COc1cc(-c2cn(C)c(=O)c3ccncc23)c(OC)cc1CN(C)C [II-24]

Row | IC50 [nM] | SMILES
27 | 630 | COc1cc(-c2cn(C)c(=O)c3cccnc23)c(OC)cc1CN(C)C [II-26]
28 | 5 | COc1cc(-c2cn(C)c(=O)c3cncnc23)cc(OC)c1CN1CC(N)C1 [II-30, 8-[4-(3-Amino-azetidin-1-ylmethyl)-3,5-dimethoxy-phenyl]-6-methyl-6H-pyrido[4,3-d]pyrimidin-5-one]
29 | 11 | COc1cc(-c2cn(C)c(=O)c3cnccc23)cc(OC)c1CN1CC(N)C1 [II-31]
30 | 24 | COc1cc(-c2cn(C)c(=O)c3cnccc23)cc(OC)c1CNC1CNC1 [II-32]
31 | 23 | COc1cc(-c2cn(C)c(=O)c3cncnc23)cc(OC)c1CNC1CNC1 [II-33]
32 | 8 | COc1cc(-c2cn(C)c(=O)c3cnccc23)cc(OC)c1CN1CC(O)C1 [II-34]
33 | 126 | COc1cc(-c2cn(C)c(=O)c3ccccc23)ccc1CN(C)C [II-41, 4-(4-Dimethylaminomethyl-3-methoxy-phenyl)-2-methyl-2H-isoquinolin-1-one]
34 | 439 | Cn1cc(-c2ccc(C(=O)N3CCNCC3)cc2)c2ccccc2c1=O [II-42, 2-Methyl-4-[4-(piperazine-1-carbonyl)-phenyl]-2H-isoquinolin-1-one]
35 | 890 | CN1CCN(Cc2ccc(-c3cn(C)c(=O)c4ccccc34)cc2)CC1 [II-43]
36 | 917 | C[C@@H](N)c1ccc(-c2cn(C)c(=O)c3ccccc23)cc1 [II-44]
37 | 981 | Cc1cc(-c2cn(C)c(=O)c3ccccc23)ccc1C(=O)N1CCN(C)CC1 [II-45]
38 | 1010 | C[C@H](N)c1ccc(-c2cn(C)c(=O)c3ccccc23)cc1 [II-46]
39 | 1190 | Cc1cc(-c2cn(C)c(=O)c3ccccc23)ccc1C(=O)N(C)C [II-47]
40 | 1550 | Cn1cc(-c2ccc(CN)cc2)c2ccccc2c1=O [II-48]
41 | 3140 | Cc1cc(-c2cn(C)c(=O)c3ccccc23)ccc1C(N)=O [II-49]
42 | 4850 | CN1CCN(C(=O)c2ccc(-c3cn(C)c(=O)c4ncccc34)cc2)CC1 [II-50]
43 | 5270 | CN1CCN(C(=O)c2ccc(-c3cn(C)c(=O)c4cncnc34)cc2)CC1 [II-51]
44 | 39 | COc1cc(-c2cn(C)c(=O)c3[nH]ccc23)ccc1CN1C[C@H]2C[C@@H]1CN2C [III-2, 4-[3-Methoxy-4-((1R,4R)-5-methyl-2,5-diaza-bicyclo[2.2.1]hept-2-ylmethyl)-phenyl]-6-methyl-1,6-dihydro-pyrrolo[2,3-c]pyridin-7-one]
45 | 46 | COc1cc(-c2cn(C)c(=O)c3[nH]ccc23)ccc1CN1C[C@@H]2CC1CN2 [III-3]
46 | 62 | COc1cc(-c2cn(C)c(=O)c3[nH]ccc23)ccc1CN1C[C@@H]2CC1CN2C [III-4]
47 | 68 | Cc1cc(-c2cn(C)c(=O)c3[nH]ccc23)ccc1C(=O)N1CCNCC1 [III-5]
48 | 81 | Cn1cc(-c2ccc(C(=O)N3CCNCC3)cc2)c2cc[nH]c2c1=O [III-6]
49 | 95 | COc1cc(-c2cn(C)c(=O)c3[nH]ccc23)ccc1C(=O)N1CCN(C)CC1 [III-7]
50 | 340 | Cc1cc(-c2cn(C)c(=O)c3[nH]ccc23)ccc1C(=O)N1CCN(C)CC1 [III-8]
51 | 391 | CN1CCN(C(=O)c2ccc(-c3cn(C)c(=O)c4[nH]ccc34)cc2)CC1 [III-9]
52 | 487 | Cn1cc(-c2ccc(C(=O)N3CCC3)cc2)c2cc[nH]c2c1=O [III-10]

target: T2, bromodomain of BRD9 (GST fusion) / acetylated histone H4 peptide (BET Bromodomain Ligand) (Homo sapiens, UniProt Q9H8M2); assay: BRD9-H4 Tetraacetylated Peptide Inhibition AlphaScreen; format: binding
T2 construct: A GST fusion protein of the bromodomain of BRD9; purchased BPS Biosciences #32519
T2 sequence (Q9H8M2 136-240 limits assumed): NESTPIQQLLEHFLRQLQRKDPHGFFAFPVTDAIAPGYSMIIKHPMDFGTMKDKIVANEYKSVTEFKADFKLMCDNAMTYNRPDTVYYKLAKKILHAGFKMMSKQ
Source text: BRD9-H4 Tetraacetylated Peptide Inhibition AlphaScreen
This assay is used to identify compounds which inhibit the interaction of the bromodomain of BRD9 with a tetra-acetylated peptide based on the sequence of histone H4 (termed the “BET Bromodomain ligand” as purchased from BPS Biosciences).
A GST fusion protein of the bromodomain of BRD9 and an acetylated histone H4 peptide (the “BET Bromodomain Ligand” are purchased as part of the BRD9 Inhibitor Screening Assay Kit at BPS Biosciences (Cat. Number: #32519)
AlphaScreen Beads (Perkin Elmer):
AlphaLISA Glutathione Acceptor Beads
AlphaScreen Streptavidin Donor Beads
Assay plates: Proxiplate-384 PLUS, white (PerkinElmer)
The assay is done in a darkened room below 100 Lux.
Compounds are dispensed onto assay plates using an Access Labcyte Workstation with the Labcyte Echo 550 from a DMSO solution. For the chosen highest concentration of 100 μM, 150 nl of compound solution are transferred from a 10 mM DMSO solution. A series of 11 concentrations is transferred for each compound at which each concentration is five-fold lower than the previous one (i.e. 100 μM, 20 μM, 4 μM, 0.8 μM, etc). DMSO is added such that every well has a total of 150 nl of DMSO.
15 μl of the resulting mix are added to the assay plates that contain 150 nl of the compounds. After 60 min at room temperature the signal is measured in a PerkinElmer Envision HTS Multilabel Reader using the AlphaScreen specifications from PerkinElmer.
Each plate contains negative controls where biotinylated BET Bromodomain Ligand and GST-BRD9 are left out and replaced by assay buffer. Negative control values are entered as low basis value when using the software GraphPad Prism for calculations.

Row | IC50 [nM] | SMILES
53 | 172 | Cc1cc(-c2ccc(C(=O)N3CCN(C)CC3)cc2)cn(C)c1=O [Compound I-9]
54 | 109 | Cc1cc(-c2ccc(CN3CCOCC3)cc2)cn(C)c1=O [Compound I-14]
55 | 279 | Cc1cc(-c2ccc(C(=O)N3CCN(C)CC3)c(F)c2)cn(C)c1=O [Compound I-15]
56 | 568 | Cc1cc(-c2cccc(OC(F)(F)F)c2)cn(C)c1=O [Compound I-16]
57 | 113 | Cc1c(-c2ccc(C(=O)N3CCN(C)CC3)cc2)cn(C)c(=O)c1C [Compound I-18]
58 | 333 | Cc1ccc(-c2cn(C)c(=O)c(C)c2C)cc1N [Compound I-19]
59 | 609 | Cc1ccc(-c2cc(C)c(=O)n(C)c2)cc1NS(C)(=O)=O [Compound I-23, N-[5-(1,5-Dimethyl-6-oxo-1,6-dihydro-pyridin-3-yl)-2-methyl-phenyl]-methanesulfonamide]
60 | 3310 | CCn1cc(-c2ccc(C)c(NS(C)(=O)=O)c2)cc(C)c1=O [Compound I-24]
61 | 6580 | Cc1ccc(-c2cn(C)c(=O)c(C)n2)cc1NS(C)(=O)=O [Compound I-25]
62 | 2560 | Cc1ccc(-c2cc(C)c(=O)n(C)n2)cc1NS(C)(=O)=O [Compound I-26]
